Experiments:
[1] = system: LSR; test: 125I-leptin degradation in PLC cells; type: cell-based, human; conditions: 50 μM
[2] = system: LSR; test: LSR activity (oleate-induced 125I-LDL binding, uptake, degradation) in primary cultures of rat hepatocytes; type: cell-based; conditions: rat hepatocytes; 50 μM
Procedure: FIGS. 6A, 6B, and 6C show the effect of leptin on ^125I-LDL and ^125I-chylomicron binding to LSR in primary cultures of rat hepatocytes. For FIG. 6A, primary cultures of rat hepatocytes (48 hours after plating) were incubated at 37° C. for 30 min in the absence (□) or presence (▪) of 50 ng/mL leptin in Buffer A, followed by a 20 min incubation at 37° C. with 0.5 mM oleate. The cells were then washed with ice-cold PBS, precooled for 10 min, and then incubated for 1 h at 4° C. with increasing concentrations of ^125I-LDL in Buffer A. Cells were washed, were lysed in 0.1 N NaOH and were counted for radioactivity. Results are shown as the mean of duplicate determinations. For FIG. 6B, primary cultures of rat hepatocytes were incubated at 37° C. for 30 min with or without 20 ng/mL leptin followed by incubation at 37° C. for 4 h with 6 μg protein/mL ^125I-chylomicrons in the absence or presence of 0.5 mM oleate in Buffer A. The cells were then washed and the ^125I-chylomicrons bound to the cell surface were released into the media by incubation with 10 mM suramin. The media was recovered and the radioactivity was measured. Results are shown as the mean±SD of six determinations. Fir FIG. 6C, after incubation at 37° C. for 30 min with 50 ng/mL leptin, the cells were incubated at room temperature for 30 min with 200 μg IgG/mL antibodies directed against rat LSR protein or irrelevant IgG. The amount of ^125I-chylomicrons bound was determined, and results are shown as means±SD of triplicate (irrelevant) or quadruplicate (anti-LSR) determinations.
(§1) FIGS. 7A and 7B show a comparison of the effect of human and mouse leptin on LSR activity in rat hepatocytes and on postprandial increase in plasma TG in db^Pas/db^Pas mice. For FIG. 7A, primary cultures of rat hepatocytes were incubated 30 min at 37° C. without (open bar) or with 10 ng/mL recombinant human (solid bar) or mouse (hatched bar) leptin in Buffer A. Oleate (0.5 mM) and ^125I-LDL (20 μg/mL) were added and the cells were incubated 2 h at 37° C. The media were removed and were analyzed for TCA-soluble degradation products. The mean of duplicate determinations is shown. For FIG. 7B, db^Pas/db^Pas mice were given a test meal as previously described, followed immediately by injection i.p. of saline (open bar, n=4), human leptin (1 μg/animal; solid bar, n=3) or mouse leptin (0.25 μg/animal; hatched bar; n=3). The data represent the difference in TG concentrations measured at t=0 and the average of the concentrations at 3 and 4 hours. Results are shown as mean±SEM.
Cells were incubated 30 min at 37° C. with increasing concentrations of mouse (▪) or human (●) leptin peptide. Following this, 0.5 mM oleate and 20 μg/mL ^125I-LDL were added and the cells were further incubated for 2 h at 37° C. The cells were washed, and the amount of oleate-induced ^125I-LDL bound and degraded was measured as described previously (Bihain, B. E., and Yen, F. T. (1992). Free fatty acids activate a high-affinity saturable pathway for degradation of low-density lipoproteins in fibroblasts from a subject homozygous for familial hypercholesterolemia. Biochemistry 31, 4628-4636).
FIGS. 11A and 11B show the effect of mouse leptin (FIG. 11A) or leptin peptide (FIG. 11B) on postprandial plasma TG response in ob/ob mice. […] Postprandial triglyceridemia was measured as described previously. Each point represents the mean±SEM (A: saline, n=8, leptin, n=7; leptin peptide: saline, n=8, leptin, n=8). […] Primary cultures of rat hepatocytes were incubated 30 min at 37° C. with increasing concentrations of mouse leptin peptide. Oleate (0.5 mM) and ^125I-LDL (20 μg/mL) were added and the cells were incubated 2 h at 37° C. After washing, the amount of 125I-LDL bound to the cell surface was measured as described in the Examples section herein. […]

[3] = system: db^Pas/db^Pas mice; test: Postprandial plasma TG response after high-fat test meal in db^Pas/db^Pas mice; type: in vivo, mouse; conditions: 1 μg/animal i.p.
Procedure: FIGS. 1A and 1B show the effect of leptin on postprandial plasma TG response in db/db and db^Pas/db^Pas mice. Overnight-fasted db/db (A), db^Pas/db^Pas (B) mice were gavage-fed a high-fat test meal and immediately injected intravenously (db/db) or intraperitoneally (db^Pas/db^Pas) with saline (open symbols) or 50 μg mouse recombinant leptin (closed symbols). At the indicated times, blood was collected from the tail (A) or orbital (B) vein, plasma was separated by centrifugation, and plasma TG concentrations were determined using an enzymatic kit. Each point represents the mean±SEM (db/db: saline, n=4, leptin, n=3; db^Pas/db^Pas: saline, n=6, leptin, n=7). The average plasma lipid response in 10 control C57BL6 mice is shown as a dotted line in both A and B. In a separate experiment, shown as an inset for each strain of mice, overnight fasted db/db (●) or db^Pas/db^Pas (▪) mice were gavage-fed the test meal and immediately injected intravenously with increasing concentrations of leptin. The plasma lipid response was then measured as in A and B. The area under the response curve (AUC) was then calculated using a triangulation method on Microsoft Excel between 0 and 4 hr (mg TG·h/mL). Values are presented as % of control value (test meal alone obtained in A or B). Each point represents the mean of at least 3 mice.
as §1
Mice that were fasted for 2-3 hours were gavage-fed 300 μL of a test meal consisting of 60% fat (37% saturated, 27% mono-, and 36% polyunsaturated fatty acids), 20% protein and 20% carbohydrate, and providing 56 kcal of energy/kg (1.5 g butter, 1.5 g sunflower oil, 2.5 g nonfat dry milk, 2.5 g sucrose and 3 ml water). […] TG concentrations were determined using a commercially available enzymatic kit with controls included in each assay (Precinorm L, Roche-Boehringer Mannheim; Lyotrol N, BioMérieux).

[4] = system: LSR; test: LSR activity (oleate-induced 125I-LDL binding, uptake, degradation) in PLC cells; type: cell-based, human
Procedure: FIGS. 5A, 5B, 5C, and 5D show the stimulatory effect of leptin on LSR activity in PLC and suppression of this effect by 81B antibody. For FIGS. 5A, 5B, and 5C, cultured PLC cells were incubated at 37° C. for 30 min with increasing concentrations of human recombinant leptin in Buffer A. After this, 0.5 mM oleate and 20 μg/mL ^125I-LDL were added, and cells were further incubated at 37° C. for 2 h. Cells were washed, and the amount of oleate-induced ^125I-LDL bound (5A), internalized (5B) and degraded (5C) were measured. For FIG. 5D, PLC cells were incubated at room temperature for 30 min with 200 μg/mL anti-LSR peptide 81B or 170 antibody, followed by incubation at 37° C. for 30 min without (open bar) or with (hatched bar) 10 ng/mL human leptin. Oleate (0.5 mM) and ^125I-LDL (20 μg/mL) were added, and the monolayers were left at 37° C. for 3 h. After washing, the amount of ^125I-LDL binding was determined, and is shown here as the mean±SD of triplicate determinations.
FIGS. 8A and 8B show the effect of mouse or human leptin on LSR activity in primary cultures of rat hepatocytes or a human liver cell line (PLC). Primary cultured rat hepatocytes were obtained commercially (In Vitro Tech). The PLC cell line was obtained from ATCC repository and maintained in culture. Rat hepatocytes 72 h after plating (8A) or confluent monolayers of PLC (8B) were incubated 30 min at 37° C. with 0 (closed bar) or 10 ng/mL of human (open bar) or mouse (hatched bar) recombinant leptin. Following this, 0.5 mM oleate and 20 μg/mL ^125I-LDL were added and the cells were further incubated for 2 h at 37° C. […] The cells were washed, and the amount of oleate-induced ^125I-LDL bound and degraded was measured as described previously (Bihain, B. E., and Yen, F. T. (1992). Free fatty acids activate a high-affinity saturable pathway for degradation of low density lipoproteins infibroblasts from a subject homozygous for familial hypercholesterolemia. Biochemistry 31, 4628-4636.
FIGS. 35A and 35B show graphs of LSR activity and mRNA expression measured in PLC cells preincubated 24 h with leptin. In FIG. 35A, PLC monolayers were incubated 24 h at 37° C. with (o) or without (n) 200 ng/mL human recombinant leptin. After washing with PBS, cells were incubated 30 min at 37° C. with increasing concentrations of human leptin, followed by a 2 h incubation at 37° C. with 0.8 mM oleate and 20 μg/mL ^125I-LDL. Cells were washed, and the amount of oleate-induced ^125I-LDL binding was measured as described previously. Results are shown as the mean of triplicate determinations. In FIG. 35B, PLC monolayers were incubated 24 h at 37° C. with 0, 200, or 400 ng/mL human recombinant leptin. After washing with PBS, the cells were harvested. Total RNA was prepared from the cell pellets, and Northerns were performed to detect LSR mRNA, using GAPDH probe as loading control as described previously. Northern blots were scanned on the Phosphorimager (Molecular Dynamics, Sunnyvale, Calif.). Densitometric analysis of the images was performed using the software ImageQuant. Results are shown as the amount of LSR signal relative to that of GAPDH (mean±SD, n=3/condition). […]

## CCN(CC)CCCC(C)Nc1ccnc2cc(Cl)ccc12 (stereo not shown) [Chloroquine]
[1]
  increase of the amount of cell-associated 125I-leptin: 2-4 fold
  inhibition of 125I-leptin degradation: more than 60%

## C[C@@H]1C[C@@H]([C@H](O)CC2CC(=O)NC(=O)C2)C(=O)[C@@H](C)C1 [cycloheximide, reference compound]
[2]
  effect on the stimulatory effect of leptin on LSR activity: did not suppress the stimulatory effect of leptin

## C=C1[C@@H](C)[C@H]2[C@H](Cc3ccccc3)NC(=O)[C@]23OC(=O)/C=C/[C@H](O)CCC[C@@H](C)C/C=C/[C@H]3[C@@H]1O [cytochalasin B, reference compound]
[2]
  reduction of leptin stimulation of LSR activity: more than 80%

## human leptin: commercial preparation of recombinant human leptin
[3]
  postprandial plasma TG response: slightly reduced
[4]; 10 ng/mL recombinant leptin
  stimulation of LSR activity in human PLC cells: more efficient
[4]; human liver cells (PLC) preincubated 24 h with 200 ng/mL
  LSR activity after long-term exposure: markedly reduced LSR activity
